Biological target: T1, Polyphenol oxidase 2 (Agaricus bisporus, UniProt O42713)
T1 sequence (O42713 whole entry): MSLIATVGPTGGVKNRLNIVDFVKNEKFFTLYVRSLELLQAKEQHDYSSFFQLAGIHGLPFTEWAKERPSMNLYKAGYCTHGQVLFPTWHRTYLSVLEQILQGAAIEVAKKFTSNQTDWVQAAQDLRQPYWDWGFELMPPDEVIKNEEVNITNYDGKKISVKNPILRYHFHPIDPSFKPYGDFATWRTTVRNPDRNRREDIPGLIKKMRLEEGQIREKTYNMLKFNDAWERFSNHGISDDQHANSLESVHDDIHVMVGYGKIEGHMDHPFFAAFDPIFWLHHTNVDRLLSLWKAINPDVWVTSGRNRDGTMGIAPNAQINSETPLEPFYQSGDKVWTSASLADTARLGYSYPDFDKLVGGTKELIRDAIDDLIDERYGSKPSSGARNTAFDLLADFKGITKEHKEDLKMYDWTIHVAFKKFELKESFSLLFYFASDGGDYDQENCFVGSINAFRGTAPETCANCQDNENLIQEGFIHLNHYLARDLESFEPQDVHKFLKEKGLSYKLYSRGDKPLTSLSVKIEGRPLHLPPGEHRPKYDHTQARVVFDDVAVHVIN
Assay: Spectrophotometic Assay
Details: pH 6.8; 30 °C
From the text: The IC50 values were obtained from a spectrophotometric assay.

**Q.** How did the IC50 turn out when `O=NN(O)Cc1ccccc1O` [N-nitrosohydroxylamine N-substituted, 4] was run?
**A.** 19.2 µM

**Q.** Which IC50 does the source give for `O=NN(O)Cc1ccc(O)cc1` [N-nitrosohydroxylamine N-substituted, 6] here?
**A.** 13.7 µM

**Q.** `O=NN(O)Cc1cccc(O)c1` [N-nitrosohydroxylamine N-substituted, 5] was tested. Which IC50 did it give?
**A.** 20.3 µM

**Q.** `COc1ccc(CN(O)N=O)cc1` [N-nitrosohydroxylamine N-substituted, 10] was tested. Which IC50 did it give?
**A.** 9.7 µM

**Q.** Which IC50 does the source give for `O=NN(O)Cc1cc(O)ccc1O` [N-nitrosohydroxylamine N-substituted, 8] here?
**A.** 23.8 µM

**Q.** For `O=NN(O)Cc1ccc(O)cc1O` [N-nitrosohydroxylamine N-substituted, 7], which IC50 is on record?
**A.** 11.6 µM

**Q.** How did the IC50 turn out when `CC(C)(C)c1ccc(CN(O)N=O)cc1` [N-nitrosohydroxylamine N-substituted, 11] was run?
**A.** 15.8 µM

**Q.** Which IC50 does the source give for `O=NN(O)Cc1ccc(Cl)cc1` [N-nitrosohydroxylamine N-substituted, 9] here?
**A.** 13.1 µM
